Key:
[1] = tested on: HeLa cells (cervical cancer); assay: Cell proliferation measurement (Cell Titer Glo), HeLa; format: cell-based; details: Homo sapiens, 72 h treatment, read-out: Anti-proliferation IC50 HeLa (Cervical cancer)
Method: (§1) The antiproliferative activity of the compounds of the general formula (I) was examined in vitro in human cancer cells. For this purpose, 1000 cells (or 500 HeLa cells) were plated in 384-well plates with appropriate growth medium and incubated at 37° C. overnight. After 24 h, the cells on the test plate were treated with the compounds of the general formula (I) as and incubated at 37° C. for 72 h. The compounds were added to the cells by means of an HP D300 digital dispenser in a 10 (or more)-step dilution series. As control, the cells were treated with vehicle (DMSO at 0.3% final concentration). After 72 h, the cells were treated with 20 μl/well of 50% CTG solution in PBS (Promega Cell Titer Glo (catalogue #G755B and G756B)) and incubated at room temperature for 10 min, and luminescence was measured by means of a VICTOR V (Perkin Elmer), in order to determine cell viability at the end of treatment. The percentage effect on cell growth and the IC50 derived therefrom were determined for each test substance using the values from untreated wells (=percent viability). The IC50 values were calculated using a 4-parameter fit.

SK-MEL-3 (melanoma) = assay: Cell proliferation measurement (Cell Titer Glo), SK-MEL-3; format: cell-based; details: Homo sapiens, SK-MEL3, SK-MEL-3 cells, 72 h treatment, read-out: Anti-proliferation IC50 SK-MEL-3 (melanoma)
Method: as §1

human full length PDE3A = molecular target: T1, human full length PDE3A (Homo sapiens, UniProt Q14432); assay: PDE3A enzyme inhibition (3H-cAMP Scintillation Proximity Assay); format: biochemical; details: PDE3A cell extract from Sf9 cells, 60 min room temperature; read-out: Target IC50 PDE3A IC50
T1 construct: Sf9 cells overexpressing human full length PDE3A; purchased SB Drug Discovery, UK; host or cells: Sf9 cells (cell extract)
Method: (§2) The commercially available 3H-cAMP Scintillation Proximity Assay (SPA, Perkin Elmer) system was used for enzyme inhibition studies. For the determination of the in vitro effect of test substances on the PDE3A reactions 2 μl of the respective test compound solution in DMSO (serial dilutions) were is placed in wells of microtiter plates (Isoplate-96/200W; Perkin Elmer). 50 μl of a dilution of PDE3A cell extract from Sf9 cells overexpressing human full length PDE3A (SB Drug Discovery, UK) in buffer A (50 mM Tris/HCl pH 7.5, 8.3 mM MgCl2, 1.7 mM EDTA, 0.2% BSA) was added. The dilution of the PDE3A cell extract was chosen such that the reaction kinetics was linear and less than 70% of the substrate was consumed (typical dilution 1:5000). The reaction was started by addition of 50 μl (0.025 μCi) of 1:2000 in buffer A w/o BSA diluted substrate [8-3H] adenosine 3′,5′-cyclic phosphate (1 μCi/μl; Perkin Elmer). After incubation at room temperature for 60 min, the reaction was stopped by addition of 25 μl of a suspension containing 18 mg/ml yttrium scintillation proximity beads (Perkin Elmer) in water. The microtiter plates were sealed and measured in a Microbeta scintillation counter (PerkinElmer Wallac). IC50 values were determined from sigmoidal curves by plotting percentage PDE3A activity vs log compound concentration.

human full length PDE3B = molecular target: T2, human full length PDE3B (Homo sapiens, UniProt Q13370); assay: PDE3B enzyme inhibition (3H-cAMP Scintillation Proximity Assay); format: biochemical; details: PDE3B cell extract from Sf9 cells, 60 min room temperature; read-out: Target IC50 PDE3B IC50
T2 construct: Sf9 cells overexpressing human full length PDE3B; purchased SB Drug Discovery, UK; host or cells: Sf9 cells (cell extract)
Method: as §2, with “PDE3B” for “PDE3A”, “were” for “were is”, “1:6000).” for “1:5000).”

T1 sequence (Q14432 whole entry): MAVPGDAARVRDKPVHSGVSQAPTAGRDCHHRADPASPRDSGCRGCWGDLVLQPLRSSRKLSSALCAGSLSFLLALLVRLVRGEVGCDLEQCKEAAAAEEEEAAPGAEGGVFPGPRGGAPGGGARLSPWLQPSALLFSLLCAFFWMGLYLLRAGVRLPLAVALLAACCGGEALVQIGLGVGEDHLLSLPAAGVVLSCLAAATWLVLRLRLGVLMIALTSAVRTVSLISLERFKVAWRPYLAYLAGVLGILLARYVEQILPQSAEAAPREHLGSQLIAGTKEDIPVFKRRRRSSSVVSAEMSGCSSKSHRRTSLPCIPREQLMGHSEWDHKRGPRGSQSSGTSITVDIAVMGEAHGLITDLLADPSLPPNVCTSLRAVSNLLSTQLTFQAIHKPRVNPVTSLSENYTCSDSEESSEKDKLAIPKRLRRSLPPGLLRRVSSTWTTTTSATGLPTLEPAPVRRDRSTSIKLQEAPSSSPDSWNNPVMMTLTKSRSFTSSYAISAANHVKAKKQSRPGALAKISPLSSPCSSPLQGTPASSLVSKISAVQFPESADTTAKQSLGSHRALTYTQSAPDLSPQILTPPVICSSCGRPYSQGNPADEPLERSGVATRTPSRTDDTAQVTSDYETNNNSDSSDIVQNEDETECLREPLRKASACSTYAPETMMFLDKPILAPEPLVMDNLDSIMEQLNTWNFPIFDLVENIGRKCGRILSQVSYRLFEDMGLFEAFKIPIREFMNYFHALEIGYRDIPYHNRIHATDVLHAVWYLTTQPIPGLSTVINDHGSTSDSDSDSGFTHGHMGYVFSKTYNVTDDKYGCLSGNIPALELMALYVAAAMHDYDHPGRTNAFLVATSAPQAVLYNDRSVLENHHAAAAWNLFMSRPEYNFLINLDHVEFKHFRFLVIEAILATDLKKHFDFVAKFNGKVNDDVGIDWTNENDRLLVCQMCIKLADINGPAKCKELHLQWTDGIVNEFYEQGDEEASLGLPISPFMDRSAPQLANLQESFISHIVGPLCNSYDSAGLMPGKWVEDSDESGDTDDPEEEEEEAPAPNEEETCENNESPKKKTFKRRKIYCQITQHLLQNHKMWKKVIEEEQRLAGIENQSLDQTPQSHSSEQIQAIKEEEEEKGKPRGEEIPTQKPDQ
T2 sequence (Q13370 whole entry): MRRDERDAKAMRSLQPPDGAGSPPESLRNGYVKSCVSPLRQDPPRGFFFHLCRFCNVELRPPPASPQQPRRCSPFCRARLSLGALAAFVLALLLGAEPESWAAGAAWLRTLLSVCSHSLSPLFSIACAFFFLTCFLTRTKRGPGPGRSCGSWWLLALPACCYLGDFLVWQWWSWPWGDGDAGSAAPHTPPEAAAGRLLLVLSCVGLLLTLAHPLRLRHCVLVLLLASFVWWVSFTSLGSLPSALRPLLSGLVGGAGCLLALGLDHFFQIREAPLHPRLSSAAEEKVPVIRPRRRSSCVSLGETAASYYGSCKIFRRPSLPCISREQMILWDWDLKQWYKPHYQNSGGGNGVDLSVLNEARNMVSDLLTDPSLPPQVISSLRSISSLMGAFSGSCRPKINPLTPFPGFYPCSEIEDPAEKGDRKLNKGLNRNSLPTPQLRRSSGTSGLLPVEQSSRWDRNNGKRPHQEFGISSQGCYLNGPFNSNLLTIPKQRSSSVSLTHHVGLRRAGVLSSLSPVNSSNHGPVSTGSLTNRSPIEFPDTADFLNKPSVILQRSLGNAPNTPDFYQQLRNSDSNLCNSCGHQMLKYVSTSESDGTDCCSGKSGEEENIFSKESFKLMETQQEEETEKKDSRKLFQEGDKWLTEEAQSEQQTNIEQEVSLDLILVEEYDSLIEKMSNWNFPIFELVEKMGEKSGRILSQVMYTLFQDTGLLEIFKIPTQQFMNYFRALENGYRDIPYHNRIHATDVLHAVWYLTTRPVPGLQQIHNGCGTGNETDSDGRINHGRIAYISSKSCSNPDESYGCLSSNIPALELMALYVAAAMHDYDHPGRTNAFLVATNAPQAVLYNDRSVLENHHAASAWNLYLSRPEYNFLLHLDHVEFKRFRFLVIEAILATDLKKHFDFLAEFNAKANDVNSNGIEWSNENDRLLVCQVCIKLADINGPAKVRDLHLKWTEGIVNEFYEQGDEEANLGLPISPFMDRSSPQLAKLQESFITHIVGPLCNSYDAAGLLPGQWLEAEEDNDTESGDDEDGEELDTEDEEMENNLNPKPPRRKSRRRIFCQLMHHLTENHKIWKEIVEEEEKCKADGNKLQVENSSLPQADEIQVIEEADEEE

Row | Structure (SMILES) | IC50 [1] | IC50 (SK-MEL-3 (melanoma)) | IC50 (human full length PDE3A) | IC50 (human full length PDE3B)
1 | Cc1cc(C2=NNC(=O)CC2)ccc1-c1ccccc1O [Example 102, 6-(2′-hydroxy-2-methyl[1,1′-biphenyl]-4-yl)-4,5-dihydropyridazin-3(2H)-one] | 23.4 nM | > 100 nM | 460 nM | 555 nM
2 | Cc1cc(C2=NNC(=O)CC2)ccc1-c1c(F)cccc1F [Example 110, 6-(2′,6′-difluoro-2-methyl[1,1′-biphenyl]-4-yl)-4,5-dihydropyridazin-3(2H)-one] | 8.57 nM | 39.2 nM | 240 nM | 260 nM
3 | Nc1cccc(-c2ccc(C3=NNC(=O)CC3)cc2F)c1 [Example 65, 6-(3′-amino-2-fluoro[1,1′-biphenyl]-4-yl)-4,5-dihydropyridazin-3(2H)-one] | 12.8 nM | 16.9 nM | 120 nM | 76 nM
4 | CCc1ccccc1-c1ccc(C2=NNC(=O)CC2)cc1F [Example 81, 6-(2′-ethyl-2-fluoro[1,1′-biphenyl]-4-yl)-4,5-dihydropyridazin-3(2H)-one] | 13.9 nM | 26.3 nM | 370 nM | 230 nM
5 | Cc1ccccc1-c1ccc(C2=NNC(=O)CC2)cc1F [Example 77, 6-(2-fluoro-2′-methyl[1,1′-biphenyl]-4-yl)-4,5-dihydropyridazin-3(2H)-one] | 2.04 nM | 4.53 nM | 100 nM | 80 nM
6 | Cc1cc(C2=NNC(=O)CC2)ccc1-c1cccc(F)c1 [Example 112, 6-(3′-fluoro-2-methyl[1,1′-biphenyl]-4-yl)-4,5-dihydropyridazin-3(2H)-one] | 13.9 nM | 58.2 nM | 140 nM | 110 nM
7 | Cc1ccc(-c2ccc(C3=NNC(=O)CC3)cc2F)cc1C [Example 35, 6-(2-fluoro-3′,4′-dimethyl[1,1′-biphenyl]-4-yl)-4,5-dihydropyridazin-3(2H)-one] | 63.6 nM | > 100 nM | 820 nM | 690 nM
8 | Cc1cc(C2=NNC(=O)CC2)ccc1C1=CCOCC1 [Example 7, 6-[4-(3,6-Dihydro-2H-pyran-4-yl)-3-methylphenyl]-4,5-dihydropyridazin-3(2H)-one] | 55.6 nM | > 100 nM | 200 nM | 35 nM
9 | Cc1ccc(-c2ccc(C3=NNC(=O)CC3)cc2C)cc1 [Example 121, 6-(2,4′-dimethyl[1,1′-biphenyl]-4-yl)-4,5-dihydropyridazin-3(2H)-one] | 7.15 nM | 33.6 nM | 230 nM | 230 nM
10 | CCc1ccccc1-c1ccc(C2=NNC(=O)CC2)cc1C [Example 117, 6-(2′-ethyl-2-methyl[1,1′-biphenyl]-4-yl)-4,5-dihydropyridazin-3(2H)-one] | 51.4 nM | > 100 nM | 540 nM | 440 nM
11 | COc1ccc(-c2ccc(C3=NNC(=O)CC3)cc2F)cc1 [Example 86, 6-(2-fluoro-4′-methoxy[1,1′-biphenyl]-4-yl)-4,5-dihydropyridazin-3(2H)-one] | 10.6 nM | 59.8 nM | 280 nM | 310 nM
12 | Cc1cc(C2=NNC(=O)CC2)ccc1-c1ccc(F)c(F)c1F [Example 97, 6-(2′,3′,4′-trifluoro-2-methyl[1,1′-biphenyl]-4-yl)-4,5-dihydropyridazin-3(2H)-one] | 12.1 nM | 82 nM | 170 nM | 120 nM
13 | Cc1cc(C2=NNC(=O)CC2)ccc1-c1ccc(Cl)c(N)c1 [Example 108, 6-(3′-amino-4′-chloro-2-methyl[1,1′-biphenyl]-4-yl)-4,5-dihydropyridazin-3(2H)-one] | 6.54 nM | 17.8 nM | 160 nM | 210 nM
14 | O=C1CCC(c2ccc(C3=CCCC3)c(F)c2)=NN1 [Example 80, 6-[4-(cyclopent-1-en-1-yl)-3-fluorophenyl]-4,5-dihydropyridazin-3(2H)-one] | 2.67 nM | 4.13 nM | 220 nM | 310 nM
15 | CC1CCCN1c1ccc(C2=NNC(=O)CC2)cc1C(F)(F)F (stereo not shown) [Example 20, 6-{4-[2-Methylpyrrolidin-1-yl]-3-(trifluoromethyl)phenyl}-4,5-dihydropyridazin-3(2H)-one] | 33.5 nM | 47.7 nM | 220 nM | 160 nM
16 | O=C1CCC(c2ccc(-c3cncc(C(F)(F)F)c3)c(F)c2)=NN1 [Example 29, 6-{3-fluoro-4-[5-(trifluoromethyl)pyridin-3-yl]phenyl}-4,5-dihydropyridazin-3(2H)-one] | 86.4 nM | > 100 nM | 160 nM | 110 nM
17 | O=C1CCC(c2ccc(-c3cccc(F)c3)c(F)c2)=NN1 [Example 63, 6-(2,3′-difluoro[1,1′-biphenyl]-4-yl)-4,5-dihydropyridazin-3(2H)-one] | 4.75 nM | 6.4 nM | 250 nM | 88 nM
18 | O=C1CCC(c2ccc(-c3cncnc3)c(F)c2)=NN1 [Example 40, 6-[3-fluoro-4-(pyrimidin-5-yl)phenyl]-4,5-dihydropyridazin-3(2H)-one] | 37.5 nM | 47.6 nM | 140 nM | 140 nM
19 | O=C1CCC(c2ccc(-c3ccc(F)cc3)c(F)c2)=NN1 [Example 8, 6-(2,4′-Difluorobiphenyl-4-yl)-4,5-dihydropyridazin-3(2H)-one] | 1.27 nM | 5.01 nM | 90 nM | 49 nM
20 | Cc1cc(-c2ccc(C3=NNC(=O)CC3)cc2C)ccc1F [Example 119, 6-(4′-fluoro-2,3′-dimethyl[1,1′-biphenyl]-4-yl)-4,5-dihydropyridazin-3(2H)-one] | 65.8 nM | > 100 nM | 290 nM | 290 nM
21 | O=C1CCC(c2ccc(-c3ccccc3C(F)(F)F)c(F)c2)=NN1 [Example 61, 6-[2-fluoro-2′-(trifluoromethyl)[1,1′-biphenyl]-4-yl]-4,5-dihydropyridazin-3(2H)-one] | 19.5 nM | 37.6 nM | – | –
22 | O=C1CCC(c2ccc(N3CCOCC3)c(F)c2)=NN1 [Example 25, 6-[3-Fluoro-4-(morpholin-4-yl)phenyl]-4,5-dihydropyridazin-3(2H)-one] | 6.19 nM | 19.9 nM | 210 nM | 160 nM
23 | CC1C2CC2CN1c1c(F)cc(C2=NNC(=O)CC2)cc1F (stereo not shown) [Example 17, 6-{3,5-Difluoro-4-[2-methyl-3-azabicyclo[3.1.0]hex-3-yl]phenyl}-4,5-dihydropyridazin-3(2H)-one] | 1.29 nM | 2.99 nM | 200 nM | 89 nM
24 | N#Cc1cc(C2=NNC(=O)CC2)ccc1N1CCOCC1 [Example 15, 2-(Morpholin-4-yl)-5-(6-oxo-1,4,5,6-tetrahydropyridazin-3-yl)benzonitrile] | 44.8 nM | 69.5 nM | 110 nM | 77 nM
